Results taken from ChEMBL document CHEMBL3621083, “Dehydroabietylamine derivatives as multifunctional agents for the treatment of Alzheimer's disease” (Medchemcomm, 2014).
Activity calls are given as the source filed them. No cut-off for these calls is given here.

Assays:
[1] = tested on: SH-SY5Y; experiment: Anti-oxidative activity in human SH-SY5Y cells assessed as reduction of ROS generation at 10 uM using DCFH-DA; format: functional
[2] = biological target: T1, Amyloid-beta precursor protein (Homo sapiens, UniProt P05067); experiment: Inhibition of amyloid beta-42 (unknown origin) self-mediated aggregation at 50 uM by thioflavin-T fluorescence assay
T1 sequence (P05067 whole entry): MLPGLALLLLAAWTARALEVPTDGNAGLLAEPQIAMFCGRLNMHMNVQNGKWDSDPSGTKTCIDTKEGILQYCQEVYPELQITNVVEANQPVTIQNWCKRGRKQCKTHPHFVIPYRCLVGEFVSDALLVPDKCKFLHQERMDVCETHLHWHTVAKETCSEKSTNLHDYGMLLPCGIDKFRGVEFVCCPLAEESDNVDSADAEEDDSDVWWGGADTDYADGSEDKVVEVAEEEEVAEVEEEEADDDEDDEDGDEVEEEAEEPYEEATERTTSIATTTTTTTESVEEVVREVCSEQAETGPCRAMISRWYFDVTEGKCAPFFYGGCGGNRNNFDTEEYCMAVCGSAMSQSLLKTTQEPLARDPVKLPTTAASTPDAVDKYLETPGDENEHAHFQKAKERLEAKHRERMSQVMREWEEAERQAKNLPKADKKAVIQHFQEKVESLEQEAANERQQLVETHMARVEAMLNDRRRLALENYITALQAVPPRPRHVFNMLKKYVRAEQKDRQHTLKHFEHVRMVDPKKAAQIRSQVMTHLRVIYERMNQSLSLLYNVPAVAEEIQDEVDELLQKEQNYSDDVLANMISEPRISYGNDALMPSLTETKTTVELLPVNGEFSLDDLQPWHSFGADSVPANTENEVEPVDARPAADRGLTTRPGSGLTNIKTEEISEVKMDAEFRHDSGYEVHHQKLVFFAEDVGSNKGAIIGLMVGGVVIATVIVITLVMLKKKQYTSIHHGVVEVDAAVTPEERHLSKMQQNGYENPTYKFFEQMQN

[3] = biological target: T1, Amyloid-beta precursor protein; experiment: Inhibition of amyloid beta-42 (unknown origin) aging fibrils disaggregation at 50 uM by thioflavin-T fluorescence assay
[4] = tested on: SH-SY5Y; experiment: Cytotoxicity against human SH-SY5Y cells assessed as cell viability at 10 uM after 48 hrs by MTT assay; format: cell-based
[5] = biological target: T1, Amyloid-beta precursor protein; experiment: Inhibition of amyloid beta-42 (unknown origin) fibrils formation at 50 uM after 48 hrs by transmission electron microscopy analysis
[6] = biological target: T1, Amyloid-beta precursor protein; experiment: Inhibition of amyloid beta-42 (unknown origin) beta sheets structure formation at 40 uM after 48 hrs by circular dichroism spectra analysis
[7] = biological target: T1, Amyloid-beta precursor protein; experiment: Inhibition of amyloid beta-42 (unknown origin) aging fibrils disaggregation by thioflavin-T fluorescence assay
[8] = tested on: Caenorhabditis elegans; experiment: Anti-Alzheimer's activity in Caenorhabditis elegans CL4176 expressing amyloid beta assessed as increase of average time of life expectancy at 500 uM (reference value: 46.9 +/- 0.54 hrs); format: functional
[9] = Cytotoxicity against human HEK293 cells expressing swAPP assessed as cell viability at 25 uM after 48 hrs by MTT assay; format: cell-based; settings: read-out: Activity
[10] = tested on: Caenorhabditis elegans; experiment: Anti-Alzheimer's activity in Caenorhabditis elegans CL4176 expressing amyloid beta assessed as increase of average time of life expectancy at 50 uM (reference value: 46.9 +/- 0.54 hrs); format: functional
[11] = tested on: SH-SY5Y; experiment: Cytotoxicity against human SH-SY5Y cells assessed as cell viability at 1 to 50 uM after 48 hrs by MTT assay; format: cell-based
[12] = tested on: Caenorhabditis elegans; experiment: Anti-Alzheimer's activity in Caenorhabditis elegans CL4176 expressing amyloid beta assessed as increase of average time of life expectancy at 10 uM (reference value: 46.9 +/- 0.54 hrs); format: functional
[13] = biological target: T1, Amyloid-beta precursor protein; experiment: Inhibition of amyloid beta-42 (unknown origin) self-mediated aggregation by thioflavin-T fluorescence assay
[14] = tested on: SH-SY5Y; experiment: Neuroprotective activity in human SH-SY5Y cells assessed as protection against amyloid beta-42-induced cell death at 5 to 50 uM after 48 hrs by MTT assay (reference value: 50.02 +/- 4.98%); format: functional
[15] = tested on: Caenorhabditis elegans; experiment: Anti-Alzheimer's activity in Caenorhabditis elegans CL4176 assessed as delay in amyloid beta-induced paralysis at 10 to 50 uM after 36 hrs of amyloid beta expression; format: functional, organism-based
[16] = biological target: T1, Amyloid-beta precursor protein; experiment: Inhibition of swAPP-mediated amyloid beta-42 production in human HEK293 cells at 25 uM after 48 hrs by ELISA (reference value: 100 +/-3.45%); format: cell-based; design: scale not given: the % may be the effect or the level left
[17] = biological target: T1, Amyloid-beta precursor protein; experiment: Inhibition of swAPP-mediated amyloid beta-42 production in human HEK293 cells at 10 uM after 48 hrs by ELISA (reference value: 100 +/-3.45%); format: cell-based; design: scale not given: the % may be the effect or the level left
[18] = biological target: T1, Amyloid-beta precursor protein; experiment: Inhibition of fibrils formation in aggregated amyloid beta-42 (unknown origin) assessed as short fibril formation at 50 uM after 48 hrs by transmission electron microscopy analysis
[19] = biological target: T1, Amyloid-beta precursor protein; experiment: Increase of alpha-helics formation in amyloid beta-42 (unknown origin) at 40 uM after 48 hrs by circular dichroism spectra analysis
[20] = tested on: Caenorhabditis elegans; experiment: Anti-Alzheimer's activity in Caenorhabditis elegans CL4176 expressing amyloid beta assessed as increase of average time of life expectancy at 200 uM (reference value: 46.9 +/- 0.54 hrs); format: functional
[21] = tested on: Caenorhabditis elegans; experiment: Reduction of amyloid beta expression in Caenorhabditis elegans CL4176 at 10 to 50 uM by Western blot analysis; format: functional, organism-based
[22] = tested on: Caenorhabditis elegans; experiment: Anti-Alzheimer's activity in Caenorhabditis elegans CL4176 assessed as delay in amyloid beta-induced paralysis at 500 uM after 36 hrs of amyloid beta expression; format: functional, organism-based

Row | SMILES | inhibition [1] | inhibition [2] | inhibition [3] | inhibition at 10 µM [1] [%] | also measured
1 | CC(C)c1ccc2c(c1)C(=O)C[C@H]1[C@](C)(CN)CCC[C@]21C | inactive | inactive | inactive | – | –
2 | CC(C)c1c(N)cc2c(c1[N+](=O)[O-])CC[C@H]1[C@](C)(CNC(=O)c3ccc(O)c(O)c3)CCC[C@]21C | – | 26.1% | 14.2% | 31.2 | –
3 | CC(=O)Oc1cc(C(=O)NC[C@]2(C)CCC[C@]3(C)c4ccc(C(C)C)cc4CC[C@@H]23)cc(OC(C)=O)c1OC(C)=O | – | 55.3% | 37.6% | 41.8 | Activity [4]: Non-toxic
4 | CC(=O)NC[C@]1(C)CCC[C@]2(C)c3ccc(C(C)C)cc3/C(=N/NC(=O)c3ccncc3)C[C@@H]12 | inactive | inactive | inactive | – | –
5 | CC(C)c1ccc2c(c1)CC[C@H]1[C@](C)(CNC(=O)c3cc(O)c(O)c(O)c3)CCC[C@]21C | – | 74.6% | 49% | 50.8 | Activity [4]: Non-toxic
6 | CC(=O)NC[C@]1(C)CCC[C@]2(C)c3ccc(C(C)C)cc3/C(=N/OC(=O)c3ccc(Cl)cc3)C[C@@H]12 | – | inactive | inactive | 10.4 | –
7 | CC(=O)NC[C@]1(C)CCC[C@]2(C)c3ccc(C(C)C)cc3/C(=N\NC(N)=O)C[C@@H]12 | – | inactive | inactive | 13.3 | –
8 | COc1cc(/C=C/C(=O)CC(=O)/C=C/c2ccc(O)c(OC)c2)ccc1O [CURCUMIN] | – | – | – | 37.9 | Activity [4]: Non-toxic
9 | CC(C)c1ccc2c(c1)CC[C@H]1[C@](C)(C/N=C\c3ccc(O)cc3O)CCC[C@]21C | – | 24.5% | 10.7% | 26.1 | Activity [4]: Non-toxic
10 | CC(C)c1ccc2c(c1)CC[C@H]1[C@](C)(CN)CCC[C@]21C | inactive | inactive | inactive | – | –
11 | CC(=O)NC[C@]1(C)CCC[C@]2(C)c3ccc(C(C)C)cc3/C(=N/NC(C)=O)C[C@@H]12 | inactive | inactive | inactive | – | –
12 | CC(C)c1ccc2c(c1)/C(=N/NC(=O)c1ccncc1)C[C@H]1[C@](C)(CNC(=O)C(F)(F)F)CCC[C@]21C | inactive | inactive | inactive | – | –
13 | CC(C)c1ccc2c(c1)C(=O)C[C@H]1[C@](C)(CNC(=O)C(F)(F)F)CCC[C@]21C | – | inactive | inactive | 19.8 | –
14 | CC(=O)NC[C@]1(C)CCC[C@]2(C)c3ccc(C(C)C)cc3/C(=N\NC(N)=S)C[C@@H]12 | inactive | inactive | inactive | – | –
15 | CC(C)c1c(NC(=O)/C=C/c2ccc(O)c(O)c2)cc2c(c1[N+](=O)[O-])CC[C@H]1[C@](C)(CNC(=O)/C=C/c3ccc(O)c(O)c3)CCC[C@]21C | – | 92% | 82.8% | 62.4 | Activity [4]: Non-toxic; inhibition [5]: Active; inhibition [6]: Active; inhibition [7]: Dose-dependent effect; Time [8]: 44.7 h; viability at 48 h, 25 µM [9]: > 90%; Time [10]: 50.5 h; Activity [11]: Non-toxic; Time [12]: 48.2 h; IC50 [13]: 3.96 µM; Activity [14]: 53.5%; Activity [15]: Active; Activity [16]: 10.4%; Activity [17]: 45.6%; inhibition [18]: Active; Activity [19]: Active; Time [20]: 48.8 h; Activity [21]: Active
16 | CC(C)c1c(N)cc2c(c1[N+](=O)[O-])CC[C@H]1[C@](C)(CN)CCC[C@]21C | inactive | inactive | inactive | – | –
17 | CC(C)c1c(NC(=O)/C=C/c2ccc(O)c(O)c2)cc2c(c1NC(=O)/C=C/c1ccc(O)c(O)c1)CC[C@H]1[C@](C)(CNC(=O)/C=C/c3ccc(O)c(O)c3)CCC[C@]21C | – | 93.3% | 82.5% | 53.9 | Activity [4]: Non-toxic
18 | CC(C)c1ccc2c(c1)/C(=N/O)C[C@H]1[C@](C)(CNC(=O)C(F)(F)F)CCC[C@]21C | – | inactive | inactive | 34.1 | –
19 | C/C=C1\[C@H]2C=C(C)C[C@]1(N)c1ccc(=O)[nH]c1C2 [HUPERZINE A] | – | – | – | – | Time [8]: 48.3 h; Activity [22]: Active
20 | CC(=O)Oc1cc(/C=N\C[C@]2(C)CCC[C@]3(C)c4ccc(C(C)C)cc4CC[C@@H]23)cc(OC(C)=O)c1OC(C)=O | – | 20.6% | 8.93% | 48.2 | –
21 | CC(=O)NC[C@]1(C)CCC[C@]2(C)c3ccc(C(C)C)cc3/C(=N/O)C[C@@H]12 | – | inactive | inactive | 41.2 | –
